In patent US20260027123A1, “Compositions for Modulating Lipoxygenase and Methods of Using Same” (The Regents of the University of California, priority 2022, published 2026):
Several values for one entry are separate records, joined by “and”; a condition that tells them apart may be missing. Identical values can stand only once.

Columns and labels:
Type in all cases: physicochemical
[1] = Soluble after 24 hours at room temperature; conditions: Table 2, 20/80 DMA/PEG400
[2] = Compositions prepared by mixing with solvent and sonication; soluble yes/no; conditions: Table 2
Protocol: (§1) Compositions were generally prepared by mixing with solvent and sonicated at room temperature in a water bath for 10 minutes. After a 15 minute waiting period at room temperature, the composition was sonicated again for 15 minutes at room temperature. Table 1 provides a list of formulations prepared for Compound 27332 according to certain embodiments. Table 2 provides a list of formulations prepared for 5-(methylamino)-2-naphthalen-1-yl-1,3-oxazole-4-carbonitrile (Compound ML351) according to certain embodiments. Compositions were analyzed by absorbance spectrometry at 340 nm to characterize the solubility of the compounds in each solvent mixture. Measurements were taken using a Cary60 spectrophotometer. Briefly, 2 ml absolute EtOH was added to cuvette, and instrument blanked. Then 2 μl of the excipient buffer was added, and scanned from 450 nm to 200 nm in order to confirm no large/interfering peak at 340 nm. Next, 2 μl of […] (in absolute EtOH) was added to the cuvette and scanned (450 nm to 200 nm)—this was repeated twice more for a total of three measurements. The difference in Abs(340) was determined for each subsequent addition. These three measurements were used to calculate the concentration (in molarity) using previously determined epsilon, and converted back to mg/ml.

[3] = Viscosity of the composition; conditions: Table 2
[4] = Absorbance spectrometry at 340 nm to characterize solubility in each solvent mixture (measured concentration); conditions: Table 2
Protocol: as §1

[5] = 20/80 DMA/PEG400, Approx Conc. 50 mg/ml
[6] = 20/80 DMA/PEG400, Approx Conc. 78.1 mg/ml
[7] = 20/80 DMA/PEG400, Approx Conc. 90.5 mg/ml
[8] = 20/80 Diethylacetamide/PEG400, Approx Conc. 50 mg/ml
[9] = Intralipid, Approx Conc. 0.250 mg/ml

Soluble after 24 hours at Room Temperature ([1]; Approx Conc. 50 mg/ml): yes
Soluble after 24 hours at Room Temperature ([1]; Approx Conc. 78.1 mg/ml): yes
Soluble [2, 5]: yes
Soluble [2, 6]: yes
Soluble [2, 7]: No
Soluble [2, 8]: yes
Soluble [2, 9]: yes
Viscosity [3, 5]: low
Viscosity [3, 6]: low
Viscosity [3, 7]: low
Viscosity [3, 8]: low
Viscosity [3, 9]: low
Measured Conc. [4, 5]: 46.1 mg/mL
Measured Conc. [4, 6]: 75.7 mg/mL
Measured Conc. [4, 7]: 66.3 mg/mL and 54.9 mg/mL
Measured Conc. [4, 8]: 52.5 mg/mL and 45.5 mg/mL
Measured Conc. [4, 9]: 0.315 mg/mL
SMILES: CNc1oc(-c2cccc3ccccc23)nc1C#N [ML351, 5-(methylamino)-2-naphthalen-1-yl-1,3-oxazole-4-carbonitrile]
